Measured values: patent publication US20200022995A1, “Novel Immunodulating Small Molecules” (AyuVis Research, Inc., priority 2018, published 2020)
In brackets after ≈: the same amount, converted by molar mass.

Tests used:
TLR1/2 = target: T1, TLR1/2 (Homo sapiens, UniProt O60603); experiment: IL-6 ELISA in hPBMC with TLR1/2 ligand Pam3CSK4; type: cell-based; conditions: 0.1 μM to <1 μM, 24 h
T1 construct: downregulate the IL-6 protein level in hPBMC after 24 h; endogenous in cells; host or cells: hPBMC
Text: Compound 8 modulates the TLR1/2 activities in a concentration dependent manner.

TLR4 = TLR4 (Homo sapiens, UniProt O00206); experiment: IL-1β ELISA in hPBMC, alone or with TLR4 ligand LPS; type: cell-based; parameters: endogenous in cells
Text: Compound 8 modulates the TLR4 activities in a concentration dependent manner.

TLR6 = target: T2, TLR6 (Homo sapiens, UniProt Q9Y2C9); experiment: IL-6 ELISA in hPBMC with TLR6 ligand Pam2CSK4; type: cell-based; conditions: 24 h
T2 construct: in combination with TLR6 ligand Pam2CSK4 in hPBMC after 24 h of treatment; endogenous in cells; host or cells: hPBMC
T2 sequence (Q9Y2C9 32-796): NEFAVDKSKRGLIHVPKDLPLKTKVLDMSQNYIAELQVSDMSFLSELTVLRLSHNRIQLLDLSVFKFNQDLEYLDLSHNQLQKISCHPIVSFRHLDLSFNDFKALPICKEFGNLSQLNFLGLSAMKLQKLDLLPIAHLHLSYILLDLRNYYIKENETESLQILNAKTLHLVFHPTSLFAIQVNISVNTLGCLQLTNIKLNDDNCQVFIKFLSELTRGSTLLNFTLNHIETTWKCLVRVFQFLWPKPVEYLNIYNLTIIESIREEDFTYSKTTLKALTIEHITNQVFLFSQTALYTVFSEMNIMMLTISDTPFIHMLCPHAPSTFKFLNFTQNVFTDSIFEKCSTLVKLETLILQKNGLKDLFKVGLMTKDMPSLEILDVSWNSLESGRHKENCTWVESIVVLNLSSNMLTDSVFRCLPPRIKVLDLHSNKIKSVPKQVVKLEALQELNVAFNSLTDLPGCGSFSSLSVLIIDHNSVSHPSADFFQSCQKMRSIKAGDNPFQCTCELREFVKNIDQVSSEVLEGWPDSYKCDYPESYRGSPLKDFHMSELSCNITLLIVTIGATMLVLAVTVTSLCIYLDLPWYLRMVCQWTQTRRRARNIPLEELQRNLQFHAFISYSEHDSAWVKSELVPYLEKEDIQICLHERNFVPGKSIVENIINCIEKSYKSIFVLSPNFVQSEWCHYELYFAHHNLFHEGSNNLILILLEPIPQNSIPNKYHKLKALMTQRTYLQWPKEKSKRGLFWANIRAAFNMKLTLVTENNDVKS
Procedure: Compound 8 stimulates the TLR6 activities and upregulates the production of IL-6 cytokine in combination with TLR6 ligand Pam2CSK4 in hPBMC after 24 h of treatment as detected by ELISA (FIG. 9).

[1] = system: E. coli, P. aeruginosa, A. baumanni, MRSA; experiment: Broth dilution assay against gram negative and gram positive bacteria; type: cell-based
TLR9 = target: T3, TLR9 (Homo sapiens, UniProt Q9NR96); experiment: IFN-α ELISA in hPBMC with TLR9 ligand ODN2216; type: cell-based; conditions: 48 h
T3 construct: endogenous in cells; host or cells: hPBMC
T3 sequence (Q9NR96 26-1032): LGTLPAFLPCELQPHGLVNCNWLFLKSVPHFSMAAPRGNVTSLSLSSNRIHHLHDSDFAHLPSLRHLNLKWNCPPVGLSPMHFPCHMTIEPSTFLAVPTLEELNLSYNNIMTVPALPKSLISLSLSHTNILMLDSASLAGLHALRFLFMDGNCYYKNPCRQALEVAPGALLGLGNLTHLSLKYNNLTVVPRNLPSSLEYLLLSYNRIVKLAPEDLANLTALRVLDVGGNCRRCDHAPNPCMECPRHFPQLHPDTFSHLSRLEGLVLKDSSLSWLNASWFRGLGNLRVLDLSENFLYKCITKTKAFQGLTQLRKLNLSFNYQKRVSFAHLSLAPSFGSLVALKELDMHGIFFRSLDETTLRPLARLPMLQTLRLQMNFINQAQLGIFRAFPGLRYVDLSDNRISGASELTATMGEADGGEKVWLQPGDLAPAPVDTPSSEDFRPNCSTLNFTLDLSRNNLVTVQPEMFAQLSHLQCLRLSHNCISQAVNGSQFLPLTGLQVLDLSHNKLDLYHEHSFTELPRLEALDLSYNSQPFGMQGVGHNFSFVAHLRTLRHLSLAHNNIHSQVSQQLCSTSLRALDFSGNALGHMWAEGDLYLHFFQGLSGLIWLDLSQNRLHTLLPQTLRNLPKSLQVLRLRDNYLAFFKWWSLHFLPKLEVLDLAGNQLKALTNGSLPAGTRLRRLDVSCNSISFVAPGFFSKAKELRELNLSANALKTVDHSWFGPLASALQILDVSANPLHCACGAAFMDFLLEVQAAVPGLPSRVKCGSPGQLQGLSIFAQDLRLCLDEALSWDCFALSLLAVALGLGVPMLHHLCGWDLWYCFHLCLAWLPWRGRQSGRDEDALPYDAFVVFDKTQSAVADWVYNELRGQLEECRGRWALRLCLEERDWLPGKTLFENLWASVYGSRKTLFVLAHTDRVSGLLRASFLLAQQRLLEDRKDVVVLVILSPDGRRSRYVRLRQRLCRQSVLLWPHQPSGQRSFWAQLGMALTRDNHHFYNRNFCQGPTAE
Procedure: Compound 8 antagonizes the TLR9 activities and downregulates the production of IFN-α in combination with TLR9 ligand ODN2216 in hPBMC after 48 h of treatment as detected by ELISA (FIG. 11).

neonatal pups with BPD = experiment: Hyperoxia mouse model of BPD (newborn pups); type: in vivo
[2] = system: LPS-induced lung injury in mice; experiment: LPS-induced ALI model; type: in vivo, C57BL/6 mice; conditions: IP
Text: (§1) Male C57BL/6 mice (Jackson Laboratories,) 12-15 weeks old, 25-28 gms, housed up to 5 per cage were used.
The lungs were sectioned for histopathological assessment after H/E staining while the BAL fluid was used to detect total cell counts (neutrophils and macrophages) and measure protein (that exudes by leakage).

[3] = system: hyperoxia-induced lung injury in mice; experiment: Hyperoxia induced ALI model; type: in vivo, C57BL/6 mice; conditions: IP, 10 mg/kg
Procedure: as §1
Hyperoxia induced ALI model: The ARDS model consists of exposing adult mice in 100% oxygen for 48 h followed by injecting with test compounds. Adult mice (N=5) were housed in plexi chamber with a constant and continuous supply of 100% oxygen for 48 h. […] The mice were sacrificed after 48 h to harvest lung tissues and collect (BAL) fluid.

Chain of TLR4 (O00206 24-839): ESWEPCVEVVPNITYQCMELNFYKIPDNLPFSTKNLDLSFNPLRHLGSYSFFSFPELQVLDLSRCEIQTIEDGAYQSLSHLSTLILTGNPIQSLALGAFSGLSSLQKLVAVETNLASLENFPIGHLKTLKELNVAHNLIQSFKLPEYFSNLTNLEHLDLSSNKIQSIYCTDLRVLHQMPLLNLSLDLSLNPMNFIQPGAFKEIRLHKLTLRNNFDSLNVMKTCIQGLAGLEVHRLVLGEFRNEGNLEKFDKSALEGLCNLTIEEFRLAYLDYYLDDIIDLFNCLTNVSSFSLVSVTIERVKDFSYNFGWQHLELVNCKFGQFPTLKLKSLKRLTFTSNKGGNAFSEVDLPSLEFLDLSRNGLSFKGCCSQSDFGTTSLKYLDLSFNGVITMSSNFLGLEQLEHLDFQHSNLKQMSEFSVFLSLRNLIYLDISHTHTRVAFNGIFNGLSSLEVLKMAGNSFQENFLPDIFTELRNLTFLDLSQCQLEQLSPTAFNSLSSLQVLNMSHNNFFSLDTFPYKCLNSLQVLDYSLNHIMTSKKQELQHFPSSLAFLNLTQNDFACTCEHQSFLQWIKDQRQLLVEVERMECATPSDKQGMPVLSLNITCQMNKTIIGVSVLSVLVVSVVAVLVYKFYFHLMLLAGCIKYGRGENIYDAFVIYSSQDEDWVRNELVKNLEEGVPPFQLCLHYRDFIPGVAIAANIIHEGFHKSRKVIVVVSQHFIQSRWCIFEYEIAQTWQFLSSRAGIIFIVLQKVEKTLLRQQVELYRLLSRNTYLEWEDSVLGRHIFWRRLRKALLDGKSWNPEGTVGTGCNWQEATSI
T1 sequence (O60603 21-784): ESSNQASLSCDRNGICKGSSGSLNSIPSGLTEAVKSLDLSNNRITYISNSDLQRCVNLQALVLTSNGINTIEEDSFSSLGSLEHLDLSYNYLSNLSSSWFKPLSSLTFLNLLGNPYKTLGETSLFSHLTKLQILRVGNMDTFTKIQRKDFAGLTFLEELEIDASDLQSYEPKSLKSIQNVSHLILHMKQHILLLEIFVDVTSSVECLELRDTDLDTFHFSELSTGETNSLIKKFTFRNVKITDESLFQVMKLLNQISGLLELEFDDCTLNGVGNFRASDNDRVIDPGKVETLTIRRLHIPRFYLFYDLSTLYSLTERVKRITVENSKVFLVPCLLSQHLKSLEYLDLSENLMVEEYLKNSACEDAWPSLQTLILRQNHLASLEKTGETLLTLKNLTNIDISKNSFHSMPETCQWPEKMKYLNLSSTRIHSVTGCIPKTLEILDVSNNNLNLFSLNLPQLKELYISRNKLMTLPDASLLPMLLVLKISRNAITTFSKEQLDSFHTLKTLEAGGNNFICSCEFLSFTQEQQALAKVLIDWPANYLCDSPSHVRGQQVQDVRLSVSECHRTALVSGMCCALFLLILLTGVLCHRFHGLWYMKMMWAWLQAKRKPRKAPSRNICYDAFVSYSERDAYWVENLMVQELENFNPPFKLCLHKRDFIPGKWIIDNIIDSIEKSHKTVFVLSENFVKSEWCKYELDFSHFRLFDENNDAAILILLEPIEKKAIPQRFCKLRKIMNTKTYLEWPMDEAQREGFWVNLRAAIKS

CC(=O)N[C@H]1[C@H](Oc2ccc([N+](=O)[O-])cc2)O[C@H](CO)[C@@H](O)[C@@H]1O [Compound 8, p-Nitrophenyl 2-acetamido-2-deoxy-β-D-glucopyranoside]
IL-6 protein level (TLR1/2): downregulate
IL-1β protein level (TLR4; 0.1 μM to <1 μM, alone or with LPS, 24 h, ELISA): downregulate
production of IL-1β (TLR4; 1.0 μM, alone and with LPS): significantly stimulated
production of IL-6 cytokine (TLR6): upregulates
MIC90 ([1]; compound alone, range over the bacteria screened): 50 to 200 µg/mL (≈ 146 to 584 µM)
MIC ([1]; in combination with colistin): 3.1 to 6.25 µg/mL
production of IFN-α (TLR9): downregulates
hyperoxia induced BPD in mouse pups (neonatal pups with BPD; IP and IV, saline solution, 5 mg/kg or 10 mg/kg on PN2 and PN4): prevent
chord length, septal thickness and radial alveolar count of mouse lungs (neonatal pups with BPD; IP injection): improvement
inflammatory cytokines in lung tissue and serum (neonatal pups with BPD; after injection): decreased
protection against LPS induced lung injury ([2]; 10 mg/kg at 4 h and 12 h post LPS): significant protection
LPS-induced lung inflammation ([2]; 10 mg/kg, mice): ameliorated
protection against hyperoxia induced lung injury ([3]; 100% oxygen 48 h): significant protection
hyperoxia-induced lung inflammation ([3]; mice): ameliorated
